# Assay results published in patent publication US12448382B2, “Heterocyclic compounds for mediating tyrosine kinase 2 activity” (GUANGZHOU INNOCARE PHARMA TECH CO., LTD., priority 2019, dated 2025).
# Experiments:
# [1] = target: T1, human recombinant TYK2 protein (Homo sapiens, UniProt P29597); test: TYK2 Inhibition Assay (HTRF kinase assay); format: biochemical; conditions: human recombinant TYK2, 11.25 μM ATP substrate solution
# T1 construct: purchased Carna Biosciences 08-147
# T1 sequence (P29597 871-1187 limits assumed): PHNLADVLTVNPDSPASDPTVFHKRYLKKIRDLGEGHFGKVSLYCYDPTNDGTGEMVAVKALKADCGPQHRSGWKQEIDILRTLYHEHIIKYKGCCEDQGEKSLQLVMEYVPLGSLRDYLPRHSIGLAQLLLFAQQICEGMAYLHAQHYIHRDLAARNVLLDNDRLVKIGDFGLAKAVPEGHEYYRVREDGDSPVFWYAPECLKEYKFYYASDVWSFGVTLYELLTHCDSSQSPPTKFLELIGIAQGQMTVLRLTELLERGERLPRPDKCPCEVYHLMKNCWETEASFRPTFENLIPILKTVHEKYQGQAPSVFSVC
# Method: The effect of the compounds of the present invention on the enzymatic activity of TYK2 was assessed by detecting the substrate phosphorylation level in a kinase reaction using the HTRF kinase assay detection kit (Cisbio, Cat. No. 62TK0PEC).
# (§1) The experimental method is generally described below:
# A reaction buffer contained the following components: an enzyme reaction buffer (1×), 5 mM MgCl2 mM DTT and 0.01% Brij35 from the kit. A TYK2 kinase solution contained human recombinant TYK2 protein (Carna Biosciences, 08-147) diluted in the reaction buffer to 0.25 ng/μL. A substrate reaction solution contained 11.25 μM ATP and 0.5 μM of a biotinylated tyrosine kinase substrate from the kit in the reaction buffer. A detection solution contained 0.1 ng/μL Eu^3+-labeled cage antibody (Cisbio, 61T66KLB) and 25 nM streptavidin-1 added XL665 (Cisbio, 610SAXLB) in the reaction buffer.
# (§2) The test compound was dissolved in DMSO to 10 μM, followed by a serial 4-fold dilution with DMSO to a minimum concentration of 0.061 nM. Each concentration was further diluted 40-fold with the reaction buffer.
# (§3) To a 384-well assay plate (Corning, 3674) were added 4 μL of compound solution and 2 μL of TYK2 kinase solution. The mixture was mixed and incubated at room temperature for 15 minutes, and then added with 4 μL of the substrate reaction solution. After further incubation at room temperature for 40 minutes, the reaction mixture was added with an equal volume of 10 μL detection solution and allowed to stand at room temperature for 30 minutes. An Envision plate reader (Perkin Elmer) was then used to measure the progress of the reaction at 620 nm and 665 nm. The ratio of absorbances at 665 nm and 620 nm was positively correlated with the degree of substrate phosphorylation, therefore the activity of TYK2 kinase was detected. In the experiment, the group without TYK2 kinase protein was treated as the 100% inhibition group, and the group with TYK2 kinase protein but not the test compound was treated as the 0% inhibition group. The percentage of inhibition on TYK2 kinase activity by the test, compound was calculated using the following formula: Percentage of inhibition=100−100*(ratiocompound−ratio100% inhibition)/(ratio0% inhibition−ratio100% inhibition)
# The IC50 value of the test compound was calculated from 8 concentration points using the XLfit software (ID Business Solutions Ltd., UK) by the following formula: Y=Bottom+(Top−Bottom)/(1+10^((log IC50−X)slope factor))
# Where Y was the percentage of inhibition, X was the logarithm of the concentration of the test compound, Bottom was the bottom plateau value of the S-shaped curve, Top was the top plateau value of the S-shaped curve, and slope factor was the slope coefficient of the curve.
# [2] = target: T2, human recombinant JAK2 protein (Homo sapiens, UniProt O60674); test: JAK2 Inhibition Assay (HTRF kinase assay); format: biochemical; conditions: human recombinant JAK2, 2.5 μM ATP substrate solution
# T2 construct: purchased Carna Biosciences 08-045
# Method: The effect of the compounds of the present invention on the enzymatic activity of JAK2 was assessed by detecting the substrate phosphorylation level in a kinase reaction using the HTRF kinase assay detection kit (Cisbio, Cat. No. 62TK0PEC).
# as §1
# A reaction buffer contained the following components: an enzyme reaction buffer (1×), 5 mM MgCl2, 1 mM DTT and 0.01% Brij35 from the kit. A JAK2 kinase solution contained a human recombinant JAK2 protein (Carna Biosciences, 08-045) diluted in the reaction buffer to 0.15 ng/μL. A substrate reaction solution contained 2.5 μM ATP and 0.25 μM of a biotinylated tyrosine kinase substrate from the kit in the reaction buffer. A detection solution contained 0.1 ng/μL Eu^3+-labeled cage antibody (Cisbio, 61T66KLB) and 12.5 nM streptavidin-labeled XL665 (Cisbio, 610SAXLB) in the reaction buffer.
# as §2
# as §3, with “JAK2” for “TYK2”, “30” for “40”, “test” for “test,”
# The IC50 value of the test compound was calculated from 8 concentration points using the XLfit softwere (ID Business Solutions Ltd., UK) by the following formula: Y=Bottom+(Top−Bottom)/(1+10^((log IC50−X)×slope factor))
# Where Y was the percentage of inhibition, X was the logarithm of the concentration of the test compound. Bottom was the bottom plateau value of the S-shaped curve, Top was the top plateau value of the S-shaped curve, and slope factor was the slope coefficient of the curve.
# T2 sequence (O60674 826-1132 limits assumed): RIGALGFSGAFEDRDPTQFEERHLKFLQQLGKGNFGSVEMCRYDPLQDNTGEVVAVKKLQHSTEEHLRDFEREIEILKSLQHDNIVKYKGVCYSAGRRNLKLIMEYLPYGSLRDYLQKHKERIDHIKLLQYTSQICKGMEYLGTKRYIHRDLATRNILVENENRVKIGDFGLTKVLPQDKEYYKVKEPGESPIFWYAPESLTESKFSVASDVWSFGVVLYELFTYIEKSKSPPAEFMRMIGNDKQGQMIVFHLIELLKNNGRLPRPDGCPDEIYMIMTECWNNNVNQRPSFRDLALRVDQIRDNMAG
IC50 [1],IC50 [2],Compound
98 nM,325 nM,"Cn1cc(Nc2ncc(Cl)c(N3C[C@]4(C)CN(Cc5ccn(C)n5)C[C@]4(C)C3)n2)cn1 [Compound 75, 5-chloro-4-((3aR,6aS)-3a,6a-dimethyl-5-((1-methyl-1H-pyrazol-3-yl)methyl)hexahydropyrrolo[3,4-c]pyrrol-2(1H)-yl)-N-(1-methyl-1H-pyrazol-4-yl)pyrimidin-2-amine]"
75 nM,82 nM,"Cn1cc(Nc2nccc(N3C[C@]4(C)CN(C(=O)C5CC5(F)F)C[C@]4(C)C3)n2)cn1 (stereo partly drawn) [Compound 5, (2,2-difluorocyclopropyl)((3aR,6aS)-3a,6a-dimethyl-5-(2-((1-methyl-1H-pyrazol-4-yl)amino)pyrimidine-4-yl)hexahydropyrrolo[3,4-c]pyrrole-2(1H)-yl)methanone]"
127 nM,113 nM,"CCOC(=O)N1C[C@@]2(C)CN(c3ccnc(Nc4cnn(C)c4)n3)C[C@@]2(C)C1 [Compound 6, ethyl (3aR,6aS)-3a,6a-dimethyl-5-(2-((1-methyl-1H-pyrazol-4-yl)amino)pyrimidin-4-yl)hexahydropyrrol[3,4-c]pyrrole-2(1H)-carboxylate]"
224 nM,34 nM,"Cn1ccc(Nc2ncc(Cl)c(N3C[C@]4(C)CN(C(=O)C5CC5)C[C@]4(C)C3)n2)n1 [Compound 94, ((3aR,6aS)-5-(5-chloro-2-((1-methyl-1H-pyrazol-3-yl)amino)pyrimidin-4-yl)-3a,6a-dimethylhexahydropyrrolo[3,4-c]pyrrol-2(1H)-yl)(cyclopropyl)methanone]"
30 nM,136 nM,"Cn1cc(Nc2ncc(Cl)c(N3C[C@]4(C)CN(Cc5ncn(C)n5)C[C@]4(C)C3)n2)cn1 [Compound 77, 5-chloro-4-((3aR,6aS)-3a,6a-dimethyl-5-((1-methyl-1H-1,2,4-triazol-3-yl)methyl)hexahydropyrrolo[3,4-c]pyrrol-2(1H)-yl)-N-(1-methyl-1H-pyrazol-4-yl)pyrimidin-2-amine]"
186 nM,551 nM,"Cn1cc(Nc2ncc(C#N)c(N3C[C@]4(C)CN(C(=O)C5CC5)C[C@]4(C)C3)n2)cn1 [Compound 15, 4-((3aR,6aS)-5-(cyclopropanecarbonyl)-3a,6a-dimethlhexahydropyrrolo[3,4-c]pyrrol-2(1H)-yl)-2-((1-methyl-1H-pyrazol-4-yl)amino)pyrimidine-5-carbonitrile]"
149 nM,475 nM,"5-chloro-4-((3aR,6aS)-3a,6a-dimethyl-5-((1-methyl-IH-pyrazol-4-yl)methyl)hexahydropyrrolo[3,4-c]pyrrol-2(1H)-yl)-N-(1-methyl-1H-pyrazol-4-yl)pyrimidin-2-amine [Compound 76]"
158 nM,91 nM,Cc1cc(Nc2ncc(Cl)c(N3C[C@]4(C)CN(C(=O)C5CC5)C[C@]4(C)C3)n2)no1 [Compound 93]
43 nM,50 nM,"Cn1cc(Nc2ncc(Cl)c(N3C[C@]4(C)CN(C(=O)C5CNC5)C[C@]4(C)C3)n2)cn1 [Compound 38, azetidin-3-yl((3aR,6aS)-5-(5-chloro-2-((1-methyl-1H-pyrazol-4-yl)amino)pyrimidin-4-yl)-3a,6a-dimethylhexahydropyrrolo[3,4-c]pyrrol-2(1H)-yl)methanone]"
23 nM,113 nM,CCNC(=O)c1ccc(Nc2nccc(N3C[C@]4(C)CN(C(=O)C5CC5)C[C@]4(C)C3)n2)cc1 [Compound 3]
66 nM,25 nM,"Cn1cc(Nc2nccc(N3C[C@]4(C)CN(C(=O)NCC#N)C[C@]4(C)C3)n2)cn1 [Compound 8, (3aR,6aS)-N-(cyanomethyl)-3a,6a-dimethyl-5-(2-((1-methyl-IH-pyrazol-4-yl)amino)pyrimidin-4-yl)hexahydropyrrolo[3,4-c]pyrrole-2(1H)-carboxamide]"
52 nM,71 nM,"Cn1cc(Nc2ncc(Cl)c(N3C[C@]4(C)CN(CCO)C[C@]4(C)C3)n2)cn1 [Compound 49, 2-((3aR,6aS)-5-(5-chloro-2-((1-methyl-1H-pyrazol-4-yl)amino)pyrimidin-4-yl)-3a,6a-dimethylhexahydropyrrolo[3,4-c]pyrrol-2(1H)-yl)ethan-1-ol]"
62 nM,478 nM,C[C@@]12CN(C(=O)C3CC3)C[C@]1(C)CN(c1ccnc(Nc3ccc(C(=O)O)cc3)n1)C2 [Compound 2]
49 nM,126 nM,"Cn1cc(Nc2nccc(N3C[C@]4(C)CN(C(=O)C(F)(F)F)C[C@]4(C)C3)n2)cn1 [Compound 4, 1-((3aR,6aS)-3a,6a-dimethyl-5-(2((1-methyl-1H-pyrazol-4-yl)amino)pyrimidin-4-yl)hexahydropyrrolo[3,4-c]pyrrol-2(1H)-yl)-2,2,2-trifluoroethan-1-one]"
56 nM,8.1 nM,"COc1cnc(Nc2cnn(C)c2)nc1N1C[C@]2(C)CN(C(=O)CC#N)C[C@]2(C)C1 [Compound 97, 3-((3aR,6aS)-5-(5-methoxy-2-((1-methyl-1H-pyrazol-4-yl)amino)pyrimidin-4-yl)-3a,6a-dimethylhexahydropyrrolo[3,4-c]pyrrol-2(1H)-yl)-3-oxopropanenitrile]"
186 nM,138 nM,"Cn1cc(Nc2nccc(N3C[C@]4(C)CN(CCC#N)C[C@]4(C)C3)n2)cn1 [Compound 7, 3-((3aR,6aS)-3a,6a-dimethyl-5-(2-((1-methyl-1H-pyrazol-4-yl)amino)pyrimidin-4-yl)hexahydropyrrolo[3,4-c]pyrrol-2(1H)-yl)propanenitrile]"
13 nM,38 nM,CCNC(=O)c1ccc(Nc2ncc(F)c(N3C[C@H]4CN(C(=O)C5CC5(F)F)C[C@H]4C3)n2)cc1 (stereo partly drawn) [Compound 9]
125 nM,319 nM,"Cn1cc(Nc2nccc(N3C[C@]4(C)CN(C(=O)C5CC5)C[C@]4(C)C3)n2)cn1 [Compound 1, cyc1opropyl((3aR,6aS)-3a,6a-dimethyl-5-(2((1-methyl-1H-pyrazol-4-yl)amino)pyrimidin-4-yl)hexahydropyrrolo[3,4-c]pyrrol-2(1H)-yl)methanone]"
